One assay deals with SARS-CoV-2 replicon. Description: microbe, parasite or virus in culture. The assay is classed as cell-based.
For assay [1], the target named is SARS-CoV-2 Papain-like (PLpro) protease (Severe acute respiratory syndrome coronavirus 2, UniProt P0DTD1). The assay is described as follows: biochemical.
The test system of the next assay is SARS-CoV-2 USA-WA1/2020. Description: SARS-CoV-2 Cellular Assay (Vero 76). The assay is classed as cell-based. The following applies: Severe acute respiratory syndrome coronavirus 2, Vero 76, 144 h, read-out: SARS-COV-2 BSL3 EC50. The method, then: SARS-CoV-2 Cellular Assay (Vero 76): Test compounds are serially diluted using eight half-log dilutions in test medium (MEM supplemented with 2% FBS and 50 µg/mL gentamicin). Each dilution is added to 5 wells of a 96-well plate with 80-100% confluent Vero 76 cells. Three wells of each dilution are infected with virus (SARS-CoV-2 USA-WA1/2020), and two wells remain uninfected as toxicity controls. Six wells are infected and untreated as virus controls, and six wells are uninfected and untreated as cell controls. Viruses are prepared to achieve the lowest possible multiplicity of infection (MOI˜0.002) that would yield >80% cytopathic effect (CPE) at 6 days. Plates are incubated at 37±2° C., 5% CO2. For neutral red assay, on day 6 post-infection, once untreated virus control wells reach maximum CPE, plates are stained with neutral red dye for approximately 2 hours (±15 minutes). Supernatant dye is removed, and wells are rinsed with PBS, and the incorporated dye is extracted in 50:50 Sorensen citrate buffer/ethanol for >30 minutes and the optical density is read on a spectrophotometer at 540 nm. Optical densities are converted to percent of cell controls and normalized to the virus control, then the concentration of test compound required to inhibit CPE by 50% (EC50) is calculated by regression analysis. The concentration of compound that would cause 50% cell death in the absence of virus was similarly calculated (CC50). EC50 ranges are reported as follows: A<1 µM; B 1-10 µM; C 10-50 µM; D>50 µM.

Setting [2] is: Severe acute respiratory syndrome coronavirus 2, Huh-7, 20 h; read-out: SARS-COV-2 replicon EC50.
Where [3] appears, read: ubiquitin-fluorophore substrate (Ub-R110), 30 min preincubation at RT, run in duplicate, read-out: PLpro IC50.
Setting [4] is: Severe acute respiratory syndrome coronavirus 2, Huh-7, 20 h, read-out: SARS-COV-2 replicon EC50.

pEC50, pIC50: −log10 of the molar value. Like-named read-outs stand apart in the source and are kept apart here.

Regarding `Cc1ccc2cc1C(=O)N[C@H](C)c1cc(cc3ccccc13)-c1cn(nn1)CCCCC(=O)NC2` [Example 14], the negative logarithm of the EC50 (pEC50) in the assay with SARS-CoV-2 replicon (setting [2]) is below 4.30. Also, the pIC50 in assay [1] (setting [3]) was 6.00 to 7.00.
Consider `COC(=O)/C=C/C(=O)NNC(=O)CCc1ccc2cc1C(=O)N[C@H](C)c1cc(cc3ccccc13)CCCCCNC2=O` [Example 25], for which the negative-log EC50 (pEC50) in the assay with SARS-CoV-2 USA-WA1/2020 and in the assay with SARS-CoV-2 replicon (setting [4]) was above 6.00 throughout.
With `Cc1ccc2cc1C(=O)N[C@H](C)c1cc(cc3ccccc13)N1CCN(CCCC(=O)NC2)CC1` [Example 15], the pIC50 in assay [1] (setting [3]) is 5.00 to 6.00.
The same measure, in the same setting: the figure for `Cc1ccc2cc1C(=O)N[C@H](C)c1cc(cc3ccccc13)CCCCNC2` [Example 4] is 5.00 to 6.00.
The same measure, in the same setting: the same measure for `COC(=O)/C=C/C(=O)NNC(=O)CCc1ccc2cc1C(=O)N[C@H](C)c1cc(cc3ccccc13)CCCCCCNC2=O` [Example 26]: above 7.00.
The same measure, in the same setting: the figure for `COC(=O)/C=C/C(=O)NNC(=O)CCc1ccc2cc1C(=O)N[C@H](C)c1cc(cc3c1CCCC3)CCCCCNS2(=O)=O` [Example 36] is 6.00 to 7.00.
As to `Cc1ccc2cc1C(=O)N[C@H](C)c1c(ccc3ccccc13)CCCCCNC2` [Example 8], the negative logarithm of the IC50 (pIC50) in assay [1] (setting [3]) is below 5.00.
Same read-out and setting: the figure for `Cc1ccc2cc1C(=O)N[C@H](C)c1cc(cc3ccccc13)C=CCCCCC2` [Example 6] is below 5.00; for `C[C@H]1NC(=O)c2cc(ccc2C#N)C(=O)NCCCCCc2cc1c1ccccc1c2` [Example 41] it is 5.00 to 6.00.
`COC(=O)/C=C/C(=O)NNC(=O)CCc1ccc2cc1C(=O)N[C@H](C)c1cc(cc3ccccc13)CCCCOCCNC2=O` [Example 37]: the negative logarithm of the EC50 (pEC50) in the assay on SARS-CoV-2 USA-WA1/2020 and in the assay on SARS-CoV-2 replicon (setting [2]) was above 6.00 each time. Moreover, the negative logarithm of the IC50 (pIC50) in assay [1] (setting [3]) was above 7.00.
In the case of `Cc1ccc2cc1C(=O)N[C@H](C)c1cc(cc3ccccc13)C(=O)N(C)CCCN(C)C(=O)CC2` [Example 11], in assay [1] (setting [3]), the negative logarithm of the IC50 (pIC50) was below 5.00.
For the compound `COC(=O)/C=C/C(=O)NNC(=O)CCc1ccc2cc1C(=O)N[C@H](C)c1cc(cc3ccccc13)CCCCCS(=O)(=O)C2` [Example 24], the pEC50 with SARS-CoV-2 replicon (setting [2]) is 4.30 to 5.00. The pIC50 in assay [1] (setting [3]) is above 7.00.
For the compound `Cc1ccc2cc1C(=O)N[C@H](C)c1cc(cc3ccccc13)N1CCN(CCCCC(=O)NC2)CC1` [Example 16], the negative logarithm of the IC50 (pIC50) in assay [1] (setting [3]) is below 5.00.
Consider `C[C@H]1NC(=O)c2cc(ccc2CCC(=O)NN)CCCCCC=Cc2cc1c1ccccc1c2` [Example 20], for which, in assay [1] (setting [3]), the negative logarithm of the IC50 (pIC50) was below 5.00.
As for `Cc1ccc2cc1C(=O)N[C@H](C)c1cc(cc3ccccc13)-c1cn(nn1)CCCCNC2` [Example 17], in the assay with SARS-CoV-2 replicon (setting [4]), the negative-log EC50 (pEC50) was 4.30 to 5.00. For the same compound, the pIC50 in assay [1] was 6.00 to 7.00.
For the compound `COC(=O)/C=C/C(=O)NNC(=O)CCc1ccc2cc1C(=O)N[C@H](C)c1cc(cc3ccccc13)C=CCCCCNC2=O` [Example 27], in assay [1] (setting [3]), the negative logarithm of the IC50 (pIC50) was above 7.00.
Still for that read-out and setting: the figure for `Cc1ccc2cc1C(=O)N[C@H](C)c1c(ccc3ccccc13)CCCCNC2` [Example 7] is 5.00 to 6.00; for `Cc1ccc2cc1C(=O)N[C@H](C)c1cc(cc3ccccc13)-c1cn(nn1)CCCC(=O)NC2` [Example 13] it is below 5.00; for `COC(=O)/C=C/CNC(=O)C(=O)NCc1ccc2cc1C(=O)N[C@H](C)c1cc(cc3ccccc13)CCCCCNC2=O` [Example 42, methyl (R,E)-4-(2-(((2-methyl-4,6-dioxo-3,7-diaza-1(1,3)-naphthalena-5(1,3)-benzenacyclododecaphane-5^6-yl)methyl)amino)-2-oxoacetamido)but-2-enoate] it is below 5.00.
For the compound `COC(=O)/C=C/C(=O)NNC(=O)CCc1ccc2cc1C(=O)N[C@H](C)c1cc(cc3ccccc13)CCCCCCN(C)C2=O` [Example 30], the negative logarithm of the EC50 (pEC50) was above 6.00 in the assay with SARS-CoV-2 USA-WA1/2020 and 5.00 to 6.00 in the assay with SARS-CoV-2 replicon (setting [2]). The negative logarithm of the IC50 (pIC50) in assay [1] (setting [3]) was above 7.00.
Turning to `COC(=O)/C=C/C(=O)NNC(=O)CCc1ccc2cc1C(=O)N[C@H](C)c1cc(cc3ccccc13)CCCCCNS2(=O)=O` [Example 35], the pIC50 in assay [1] (setting [3]) is above 7.00.
On the same count and under the same terms, the same measure for `COC(=O)/C=C/C(=O)NNC(=O)CCc1ccc2cc1C(=O)N[C@H](C)c1cc(cc3ccccc13)C=CCCCN(C)C2=O` [Example 32]: above 7.00.
Same read-out and setting: the same measure for `COC(=O)/C=C/C(=O)NNC(=O)CCc1ccc2cc1C(=O)N[C@H](C)c1cccc3ccc(cc13)CCCCNC2=O` [Example 34]: 6.00 to 7.00; for `COC(=O)/C=C/C(=O)NNC(=O)CCc1ccc2cc1C(=O)N[C@H](C)c1cc(cc3ccccc13)C=CCCCCN(C)C2=O` [Example 29]: above 7.00.
`COC(=O)/C=C/C(=O)NNC(=O)CCc1ccc2cc1C(=O)N[C@H](C)c1cc(cc3ccccc13)CCCCOC(=O)N2` [Example 40]: the negative logarithm of the EC50 (pEC50) with SARS-CoV-2 USA-WA1/2020 was above 6.00; in the assay with SARS-CoV-2 replicon (setting [2]) it was 5.00 to 6.00. The pIC50 in assay [1] (setting [3]) is above 7.00.
As for `COC(=O)/C=C/C(=O)N(NC(=O)CCc1ccc2cc1C(=O)N[C@H](C)c1cc(cc3ccccc13)CCCCOCCNC2=O)C(=O)/C=C/C(=O)OC` [Example 38], the negative-log IC50 (pIC50) in assay [1] (setting [3]) is above 7.00.
For the compound `Cc1ccc2cc1C(=O)N[C@H](C)c1cc(cc3ccccc13)CCCCCNC2` [Example 2], the negative-log EC50 (pEC50) with SARS-CoV-2 USA-WA1/2020 and with SARS-CoV-2 replicon (setting [2]) was 5.00 to 6.00 each time. In addition, in assay [1] (setting [3]), the negative logarithm of the IC50 (pIC50) is 6.00 to 7.00.
For the compound `COC(=O)/C=C/C(=O)NNC(=O)CCc1ccc2cc1C(=O)N[C@H](C)c1cc(cc3ccccc13)CCCCCCC2` [Example 18], the pEC50 with SARS-CoV-2 USA-WA1/2020 was 5.00 to 6.00; in the assay with SARS-CoV-2 replicon (setting [2]), 4.30 to 5.00. In addition, in assay [1] (setting [3]), the pIC50 was 6.00 to 7.00.
Turning to `COC(=O)/C=C/C(=O)NNC(=O)CCc1ccc2cc1C(=O)N[C@H](C)c1cc(cc3ccccc13)CCCCCN(C)C2=O` [Example 31], in assay [1] (setting [3]), the pIC50 was above 7.00.
On the same count and under the same terms, the same measure for `Cc1ccc2cc1C(=O)N[C@H](C)c1cc(cc3ccccc13)C(=O)N1CCN(CC1)C(=O)CC2` [Example 9]: below 5.00.
As to `COC(=O)/C=C/C(=O)NNC(=O)CCc1ccc2cc1C(=O)N[C@H](C)c1cc(cc3ccccc13)CCCCCCS(=O)(=O)C2` [Example 23], in the assay on SARS-CoV-2 replicon (setting [2]), the pEC50 was 4.30 to 5.00. Further, the pIC50 in assay [1] (setting [3]) was above 7.00.
For the compound `Cc1ccc2cc1C(=O)N[C@H](C)c1cc(cc3ccccc13)C(=O)N(C)CCCC(=O)NC2` [Example 12], the negative logarithm of the IC50 (pIC50) in assay [1] (setting [3]) is below 5.00.
The same measure, in the same setting: the same measure for `COC(=O)/C=C/C(=O)NNC(=O)CCc1ccc2cc1C(=O)N[C@H](C)c1cc(cc3ccccc13)C=CCCCNC2=O` [Example 28]: above 7.00.
Take `COC(=O)/C=C/C(=O)NNC(=O)CCc1ccc2cc1C(=O)N[C@H](C)c1cc(cc3ccccc13)CCCCCC(=O)N2` [Example 39]: the results for the pEC50 with SARS-CoV-2 USA-WA1/2020 and in the assay on SARS-CoV-2 replicon (setting [2]) were above 6.00 and 5.00 to 6.00, respectively. Besides, in assay [1] (setting [3]), the pIC50 is above 7.00.
Consider `COC(=O)/C=C/C(=O)NNC(=O)CCc1ccc2cc1C(=O)N[C@H](C)c1cccc(c1)C=CCCCCC2` [Example 22], for which the pIC50 in assay [1] (setting [3]) is 5.00 to 6.00.
Same read-out and setting: the figure for `Cc1ccc2cc1C(=O)N[C@H](C)c1cc(cc3ccccc13)C=CCCN(C(=O)OCc1ccccc1)C2` [Example 3] is below 5.00.
As to `COC(=O)/C=C/C(=O)NNC(=O)CCc1ccc2cc1C(=O)N[C@H](C)c1cc(cc3ccccc13)C=CCCCCC2` [Example 19], the negative logarithm of the EC50 (pEC50) in the assay on SARS-CoV-2 replicon (setting [2]) was 5.00 to 6.00. The negative logarithm of the IC50 (pIC50) in assay [1] (setting [3]) is above 7.00.
Regarding `Cc1ccc2cc1C(=O)N[C@H](C)c1cc(cc3ccccc13)C=CCCCN(C(=O)OCc1ccccc1)C2` [Example 1], the pIC50 in assay [1] was below 5.00.
For the compound `C[C@H]1NC(=O)c2cc(ccc2CCC(=O)NNC(=O)OC(C)(C)C)CCCCCC=Cc2cc1c1ccccc1c2` [Example 21], the negative logarithm of the IC50 (pIC50) in assay [1] (setting [3]) is below 5.00.
Regarding `Cc1ccc2cc1C(=O)N[C@H](C)c1cc(cc3ccccc13)CCCCCCNC2` [Example 5], the pEC50 in the assay on SARS-CoV-2 replicon (setting [2]) is 5.00 to 6.00. In addition, the pIC50 in assay [1] (setting [3]) was 6.00 to 7.00.

For orientation: pEC50 means the negative decadic logarithm of the EC50, by convention in mol/L. One may read the pIC50 as the negative decadic logarithm of the IC50, by convention in mol/L.

Source of the values: US20240207224A1, “MACROCYCLIC CHALCONE-AMIDE DERIVED ANTIVIRAL AGENTS” (priority 2022, published 2024).
